Active and inactive are the calls of the source. No cut-off for these calls is given here.
Legend:
[1] = Partition coefficient, log P of the compound; assay type: physicochemical; settings: octanol/water
[2] = test system: Plasmodium yoelii nigeriensis; experiment: Antimalarial activity as reduced parasitemia day 4 against multidrug-resistant Plasmodium yoelii nigeriensis infected Swiss mice (Mus musculus) at 24 mg/kg/day peroral dose over 4 days; assay type: functional; parameters: scale not given: the % may be the effect or the level left; settings: route oral
[3] = test system: Plasmodium yoelii nigeriensis; experiment: Reduced parasitemia in multidrug-resistant Plasmodium yoelii nigeriensis infected Swiss mice (Mus musculus) at 12 mg/kg peroral dose after 4 days; assay type: functional; parameters: scale not given: the % may be the effect or the level left; settings: route oral
[4] = test system: Plasmodium yoelii nigeriensis; experiment: Reduced parasitemia in multidrug-resistant Plasmodium yoelii nigeriensis infected Swiss mice (Mus musculus) at 48 mg/kg peroral dose after 4 days; assay type: functional; parameters: scale not given: the % may be the effect or the level left; settings: route oral
[5] = test system: Plasmodium yoelii nigeriensis; experiment: Survival in multidrug-resistant Plasmodium yoelii nigeriensis infected Swiss mice (Mus musculus) at 12 mg/kg peroral dose after 28 days; assay type: functional
[6] = Chemical stability in acidic solution containing tetrahydrofuran and 10% aqueous HCl after 96 hrs; assay type: physicochemical; settings: acidic solution of tetrahydrofuran and 10% aqueous HCl; read-out: Stability

## C[C@H]1[C@H](OC(=O)CCC23CC4CC(CC(C4)C2)C3)O[C@@H]2O[C@]3(C)CC[C@H]4[C@H](C)CC[C@@H]1[C@@]24OO3
[1]
  logP: 6.41
[2]
  Activity: 100%
[3]
  Activity: 100%
[4]
  Activity: 100%

## CCO[C@H]1O[C@@H]2O[C@@]3(C)CC[C@H]4[C@H](C)CC[C@@H]([C@H]1C)[C@@]24OO3 [ARTEMOTIL]
[2]
  Activity: 100%
[4]
  Activity: 100%

## C[C@H]1[C@H](OCc2ccc(-c3ccccc3)cc2)O[C@@H]2O[C@]3(C)CC[C@H]4[C@H](C)CC[C@@H]1[C@@]24OO3
[3]
  Activity: 100%

## C[C@H]1[C@H](OC(=O)c2ccc(-c3ccccc3)cc2)O[C@@H]2O[C@]3(C)CC[C@H]4[C@H](C)CC[C@@H]1[C@@]24OO3
[1]
  logP: 6.95
[2]
  Activity: 100%
[4]
  Activity: 100%

## C[C@H]1[C@H](OC(=O)C23CC4CC(CC(C4)C2)C3)O[C@@H]2O[C@]3(C)CC[C@H]4[C@H](C)CC[C@@H]1[C@@]24OO3
[1]
  logP: 6.05
[2]
  Activity: 100%
[3]
  Activity: 100%
[4]
  Activity: 100%

## C[C@H]1[C@H](OC(=O)COc2ccccc2-c2ccccc2)O[C@@H]2O[C@]3(C)CC[C@H]4[C@H](C)CC[C@@H]1[C@@]24OO3
[1]
  logP: 6.53
[2]
  Activity: 100%
[3]
  Activity: 100%
[4]
  Activity: 100%

## C[C@H]1[C@H](OCC23CC4CC(CC(C4)C2)C3)O[C@@H]2O[C@]3(C)CC[C@H]4[C@H](C)CC[C@@H]1[C@@]24OO3
[3]
  Activity: 100%

## C[C@H]1[C@H](OC(=O)CC2C3CC4CC(C3)CC2C4)O[C@@H]2O[C@]3(C)CC[C@H]4[C@H](C)CC[C@@H]1[C@@]24OO3 (some centres not stated)
[1]
  logP: 5.85
[2]
  Activity: 100%
[3]
  Activity: 100%
[4]
  Activity: 100%

## C[C@H]1[C@H](OC(=O)COc2ccc(-c3ccccc3)cc2)O[C@@H]2O[C@]3(C)CC[C@H]4[C@H](C)CC[C@@H]1[C@@]24OO3
[1]
  logP: 6.53
[2]
  Activity: 100%
[3]
  Activity: 100%
[4]
  Activity: 100%

## C[C@H]1[C@H](OC(=O)Cc2ccc(-c3ccccc3)cc2)O[C@@H]2O[C@]3(C)CC[C@H]4[C@H](C)CC[C@@H]1[C@@]24OO3
[1]
  logP: 6.89
[2]
  Activity: 100%
[4]
  Activity: 100%

## C[C@H]1[C@H](OC(=O)CCC(=O)O)O[C@@H]2O[C@@]3(C)CC[C@H]4[C@H](C)CC[C@@H]1[C@@]24OO3 [ARTESUNATE]
[2]
  Activity: 100%
[4]
  Activity: 100%

## C[C@H]1[C@H](OC(=O)CC2c3ccccc3-c3ccccc32)O[C@@H]2O[C@]3(C)CC[C@H]4[C@H](C)CC[C@@H]1[C@@]24OO3
[1]
  logP: 6.79
[2]
  Activity: 100%
[5]
  Activity: inactive
[3]
  Activity: 100%
[4]
  Activity: 100%

## C[C@H]1[C@H](OC(=O)CC23CC4CC(CC(C4)C2)C3)O[C@@H]2O[C@]3(C)CC[C@H]4[C@H](C)CC[C@@H]1[C@@]24OO3
[1]
  logP: 5.99
[2]
  Activity: 100%
[5]; route oral
  Activity: 20%
[3]
  Activity: 100%
[4]
  Activity: 100%

## C[C@H]1[C@H](OC(=O)C2c3ccccc3-c3ccccc32)O[C@@H]2O[C@]3(C)CC[C@H]4[C@H](C)CC[C@@H]1[C@@]24OO3
[1]
  logP: 6.61
[2]
  Activity: 100%
[6]
  remaining at 96 h: 80%
[3]
  Activity: 100%
[4]
  Activity: 100%

Source: ChEMBL document CHEMBL1143215, “Orally active esters of dihydroartemisinin: Synthesis and antimalarial activity against multidrug-resistant Plasmodium yoelii in mice” (Bioorg Med Chem Lett, 2008)
